Assay results taken from patent US20250368634A1, “PHENYL AMIDE COMPOUNDS AND METHODS OF USE” (SCHRÖDINGER, INC., priority 2022, published 2025).

Each compound was assayed against SOS1-KRas (G12C) (Homo sapiens (Human), UniProt Q07889) (assay: SOS1-KRas (G12C) FRET Assay). Details: not given.
Assay type: binding

Sequence of SOS1-KRas (G12C) (Q07889 564-1049, stated change not applied): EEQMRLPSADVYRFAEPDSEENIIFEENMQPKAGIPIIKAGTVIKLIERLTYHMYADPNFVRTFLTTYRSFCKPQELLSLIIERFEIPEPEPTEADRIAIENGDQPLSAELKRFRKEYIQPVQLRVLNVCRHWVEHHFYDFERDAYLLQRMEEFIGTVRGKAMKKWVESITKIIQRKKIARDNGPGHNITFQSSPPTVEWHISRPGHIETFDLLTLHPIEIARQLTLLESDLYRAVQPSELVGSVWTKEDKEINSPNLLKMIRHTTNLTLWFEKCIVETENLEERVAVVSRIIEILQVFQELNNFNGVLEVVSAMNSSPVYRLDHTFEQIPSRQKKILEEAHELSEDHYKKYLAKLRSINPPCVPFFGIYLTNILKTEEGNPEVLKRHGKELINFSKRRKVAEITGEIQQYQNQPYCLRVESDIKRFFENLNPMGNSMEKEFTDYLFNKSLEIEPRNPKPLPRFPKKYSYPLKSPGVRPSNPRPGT

| Compound | IC50 [nM] |
| --- | --- |
| C[C@@H](NC(=O)c1cc(N2CC[C@@]23CCOC3)c(F)cc1NC1CCN(C)CC1)c1cccc(C(F)F)c1F (single isomer, unassigned) [Example 34] | 112 |
| C[C@@H](NC(=O)c1cc(N2CCN(C)CC2)c(F)cc1NC1CCN(C)CC1)c1cccc(C(F)F)c1F [Example 5, (R)—N-(1-(3-(difluoromethyl)-2-fluorophenyl)ethyl)-4-fluoro-5-(4-methylpiperazin-1-yl)-2-((1-methylpiperidin-4-yl)amino)benzamide] | 24.3 |
| C[C@@H](NC(=O)c1cc(O[C@@H]2CCOC2)c(F)cc1NC1CCN(C)CC1)c1cccc(C(F)F)c1F [Example 9, N—((R)-1-(3-(difluoromethyl)-2-fluorophenyl)ethyl)-4-fluoro-2-((1-methylpiperidin-4-yl)amino)-5-(((R)-tetrahydrofuran-3-yl)oxy)benzamide] | 94 |
| C[C@@H]1CC(F)(F)CN1c1cc(C(=O)N[C@H](C)c2cccc(C(F)F)c2F)c(NC2CCN(C)CC2)cc1F (single isomer, unassigned) [Example 36] | 97.5 |

Same assay, conditions: inhibition of SOS1:KRAS interaction; 0.5 nM His10-SOS1 (res. 564-1049), 2.5 nM GST-KRAS (res. 1-169, G12C); 2 hrs at RT

| Compound | IC50 [nM] |
| --- | --- |
| Cc1c([C@@H](C)NC(=O)c2cc(N3CCOCC3)c(Cl)cc2NC2CCN(C)CC2)cccc1C(F)(F)F [Example 13, (R)-4-chloro-N-(1-(2-methyl-3-(trifluoromethyl)phenyl)ethyl)-2-((1-methylpiperidin-4-yl)amino)-5-morpholinobenzamide] | 67.2 |
| CC(C)NC(=O)c1cc(C(=O)N[C@H](C)c2cccc(C(F)F)c2F)c(NC2CCN(C)CC2)cc1F [Example 76, (R)—N1-(1-(3-(difluoromethyl)-2-fluorophenyl)ethyl)-4-fluoro-N3-isopropyl-6-((1-methylpiperidin-4-yl)amino)isophthalamide] | 874 |
| C[C@@H](NC(=O)c1cc(N2CCOCC2)c(F)cc1NC1CCNCC1)c1cccc(C(F)F)c1F [Example 14, (R)—N-(1-(3-(difluoromethyl)-2-fluorophenyl)ethyl)-4-fluoro-5-morpholino-2-(piperidin-4-ylamino)benzamide] | 21.7 |
| C[C@@H](NC(=O)c1cc(N2CCOCC2)c(F)cc1N[C@@H]1CN2CCC1CC2)c1cccc(C(C)(F)F)c1F [Example 42, N—((R)-1-(3-(1,1-difluoroethyl)-2-fluorophenyl)ethyl)-4-fluoro-5-morpholino-2-(((S)-quinuclidin-3-yl)amino)benzamide] | 49.5 |
| C[C@@H](NC(=O)c1cc(C23CC(C2)C3)c(F)cc1N[C@H]1CN2CCC1CC2)c1cccc(C(F)F)c1F [Example 69, 5-(bicyclo[1.1.1]pentan-1-yl)-N—((R)-1-(3-(difluoromethyl)-2-fluorophenyl)ethyl)-4-fluoro-2-(((R)-quinuclidin-3-yl)amino)benzamide] | 120 |
| C[C@@H](NC(=O)c1cc(C23CC(C2)C3)c(F)cc1N[C@@H]1CN2CCC1CC2)c1cccc(C(F)F)c1F [Example 70, 5-(bicyclo[1.1.1]pentan-1-yl)-N—((R)-1-(3-(difluoromethyl)-2-fluorophenyl)ethyl)-4-fluoro-2-(((S)-quinuclidin-3-yl)amino)benzamide] | 347 |
| C[C@@H](NC(=O)c1cc(N2CC3COCC(C3)C2)c(F)cc1NC1CCN(C)CC1)c1cccc(C(F)F)c1F [Example 38, 5-(3-oxa-7-azabicyclo[3.3.1]nonan-7-yl)-N-((R)-1-(3-(difluoromethyl)-2-fluorophenyl)ethyl)-4-fluoro-2-((1-methylpiperidin-4-yl)amino)benzamide] | 35.7 |
| Cc1c(C#N)cccc1[C@@H](C)NC(=O)c1cc(N2CCOCC2)c(F)cc1N[C@H]1CN2CCC1CC2 [Example 45, N—((R)-1-(3-cyano-2-methylphenyl)ethyl)-4-fluoro-5-morpholino-2-(((R)-quinuclidin-3-yl)amino)benzamide] | 69.2 |
| Cc1cc(-c2cc(C(=O)N[C@H](C)c3cccc(C(F)F)c3F)c(NC3CCN(C)CC3)cc2F)ccn1 [Example 64, (R)-N-(1-(3-(difluoromethyl)-2-fluorophenyl)ethyl)-4-fluoro-2-((1-methylpiperidin-4-yl)amino)-5-(2-methylpyridin-4-yl)benzamide] | 8.3 |
| C[C@@H](NC(=O)c1cc(N2CCOCC2)c(F)cc1NC(C)(C)C#N)c1cccc(C(F)F)c1F [Example 51, (R)-2-((2-cyanopropan-2-yl)amino)-N-(1-(3-(difluoromethyl)-2-fluorophenyl)ethyl)-4-fluoro-5-morpholinobenzamide] | 333 |
| C[C@@H](NC(=O)c1cc(N2CCC(F)(F)C2)c(F)cc1N[C@@H]1CN2CCC1CC2)c1cccc(C(F)F)c1F [Example 26, N—((R)-1-(3-(difluoromethyl)-2-fluorophenyl)ethyl)-5-(3,3-difluoropyrrolidin-1-yl)-4-fluoro-2-(((S)-quinuclidin-3-yl)amino)benzamide] | 88.8 |
| COC(=O)c1cc(C(=O)N[C@H](C)c2cccc(C(F)F)c2F)c(NC2CCN(C)CC2)cc1F [Example 71, methyl (R)-5-((1-(3-(difluoromethyl)-2-fluorophenyl)ethyl)carbamoyl)-2-fluoro-4-((1-methylpiperidin-4-yl)amino)benzoate] | 93.6 |
| C[C@@H](NC(=O)c1cc(N2CCOCC2)c(C#N)cc1N[C@H]1CN2CCC1CC2)c1cccc(C(F)F)c1F [Example 24, 4-cyano-N—((R)-1-(3-(difluoromethyl)-2-fluorophenyl)ethyl)-5-morpholino-2-(((R)-quinuclidin-3-yl)amino)benzamide] | 22.7 |
| Cc1c(C#N)cccc1[C@@H](C)NC(=O)c1cc(N2CCOCC2)c(F)cc1N[C@@H]1CN2CCC1CC2 [Example 44, N—((R)-1-(3-cyano-2-methylphenyl)ethyl)-4-fluoro-5-morpholino-2-(((S)-quinuclidin-3-yl)amino)benzamide] | 210 |
| C[C@@H](NC(=O)c1cc(N2CCOCC2)c(F)cc1NCCN)c1cccc(C(F)F)c1F [Example 47, (R)-2-((2-aminoethyl)amino)-N-(1-(3-(difluoromethyl)-2-fluorophenyl)ethyl)-4-fluoro-5-morpholinobenzamide] | 33.7 |
| C[C@@H](NC(=O)c1cc(N2CCOCC2)c(F)cc1N[C@H]1[C@@H]2C[C@H]1CN(C)C2)c1cccc(C(F)F)c1F [Example 18, N—((R)-1-(3-(difluoromethyl)-2-fluorophenyl)ethyl)-4-fluoro-2-(((1R,5S,6r)-3-methyl-3-azabicyclo[3.1.1]heptan-6-yl)amino)-5-morpholinobenzamide] | 17.8 |
| C[C@@H](NC(=O)c1cc(-c2ccn(C)c(=O)c2)c(F)cc1NC1CCN(C)CC1)c1cccc(C(F)F)c1F [Example 60, (R)—N-(1-(3-(difluoromethyl)-2-fluorophenyl)ethyl)-4-fluoro-5-(1-methyl-2-oxo-1,2-dihydropyridin-4-yl)-2-((1-methylpiperidin-4-yl)amino)benzamide] | 11 |
| C[C@@H](NC(=O)c1cc(N2CCCC2)c(F)cc1N[C@@H]1CN2CCC1CC2)c1cccc(C(F)F)c1F [Example 32, N—((R)-1-(3-(difluoromethyl)-2-fluorophenyl)ethyl)-4-fluoro-5-(pyrrolidin-1-yl)-2-(((S)-quinuclidin-3-yl)amino)benzamide] | 133 |
| Cc1c([C@@H](C)NC(=O)c2cc(N3CCOCC3)ccc2NC2CCN(C)CC2)cccc1C(F)(F)F [Example 23, (R)—N-(1-(2-methyl-3-(trifluoromethyl)phenyl)ethyl)-2-((1-methylpiperidin-4-yl)amino)-5-morpholinobenzamide] | 358 |
| Cc1c([C@@H](C)NC(=O)c2cc(N3CCOCC3)c(F)cc2NC2CCN(C)CC2)cccc1C(F)(F)F [Example 3, (R)-4-fluoro-N-(1-(2-methyl-3-(trifluoromethyl)phenyl)ethyl)-2-((1-methylpiperidin-4-yl)amino)-5-morpholinobenzamide] | 56.9 |
| C[C@@H](NC(=O)c1cc(N2C3CCCC2COC3)c(F)cc1NC1CCN(C)CC1)c1cccc(C(F)F)c1F [Example 39, 5-(3-oxa-9-azabicyclo[3.3.1]nonan-9-yl)-N-((R)-1-(3-(difluoromethyl)-2-fluorophenyl)ethyl)-4-fluoro-2-((1-methylpiperidin-4-yl)amino)benzamide] | 111 |
